The target in this test is MthK (Methanothermobacter thermautotrophicus, UniProt O27564). It is filed as biochemical.

Each structure is given as a SMILES string.

`NCCCCNCCCN` [SPD^3+]: the IC50 (commonly the concentration that inhibits the measured activity by half) was found to be 860 ± 20 µM.

`NCCCNCCCCNCCCN` [SPM^4+] registered an IC50 of 77 ± 6 µM.

The record behind these values is PMC7335011 (The Journal of General Physiology, 2020).
